Assay results reported in ChEMBL document CHEMBL1201862, “PubChem BioAssay data set” (2004).
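Cultured in 96-well plates, cells were exposed to test compound for 48 hours across five concentrations. GI50 is the concentration that inhibits growth by half.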 The source made the active and inactive calls. No stated cut-off is given here; in the data, active = GI50 up to about 1.1 µM and inactive = higher.

Tests used:
Test in all cases: NCI tumour cell line growth inhibition, 48 h
786-0 = tested on: 786-0
A498 = tested on: A498
A549 = tested on: A549
ACHN = tested on: ACHN
BT-549 = tested on: BT-549
CAKI-1 = tested on: CAKI-1
CCRF-CEM = tested on: CCRF-CEM
COLO 205 = tested on: COLO 205
DU-145 = tested on: DU-145
EKVX = tested on: EKVX
HCC 2998 = tested on: HCC 2998
HCT-116 = tested on: HCT-116
HCT-15 = tested on: HCT-15
HL-60 = tested on: HL-60
HT-29 = tested on: HT-29
Hs-578T = tested on: Hs-578T
IGROV-1 = tested on: IGROV-1
K562 = tested on: K562
KM12 = tested on: KM12
LOX IMVI = tested on: LOX IMVI
M14 = tested on: M14
MCF7 = tested on: MCF7
MDA-MB-231 = tested on: MDA-MB-231
MDA-MB-435 = tested on: MDA-MB-435
MDA-N = tested on: MDA-N
MOLT-4 = tested on: MOLT-4
Malme-3M = tested on: Malme-3M
NCI-H226 = tested on: NCI-H226
NCI-H23 = tested on: NCI-H23
NCI-H460 = tested on: NCI-H460
NCI-H522 = tested on: NCI-H522
NCI/ADR-RES = tested on: NCI/ADR-RES
OVCAR-3 = tested on: OVCAR-3
OVCAR-5 = tested on: OVCAR-5
OVCAR-8 = tested on: OVCAR-8
PC-3 = tested on: PC-3
RPMI-8226 = tested on: RPMI-8226
RXF 393 = tested on: RXF 393
SF-268 = tested on: SF-268
SF-295 = tested on: SF-295
SF-539 = tested on: SF-539
SK-MEL-28 = tested on: SK-MEL-28
SK-MEL-2 = tested on: SK-MEL-2
SK-MEL-5 = tested on: SK-MEL-5
SK-OV-3 = tested on: SK-OV-3
SN12C = tested on: SN12C
SNB-19 = tested on: SNB-19
SNB-75 = tested on: SNB-75
SR = tested on: SR
SW-620 = tested on: SW-620
TK-10 = tested on: TK-10
U-251 = tested on: U-251
UACC-257 = tested on: UACC-257
UACC-62 = tested on: UACC-62
UO-31 = tested on: UO-31
HOP-62 = tested on: HOP-62
HOP-92 = tested on: HOP-92
OVCAR-4 = tested on: OVCAR-4

NC1CC2NC3CCCCC3NC2CC1N (stereo not drawn)
GI50 (786-0): 30 µM (inactive)
GI50 (A498): 26.8 µM (inactive)
GI50 (A549): 58.3 µM (inactive)
GI50 (ACHN): 24.9 µM (inactive)
GI50 (BT-549): > 100 µM (inactive)
GI50 (CAKI-1): 35 µM (inactive)
GI50 (CCRF-CEM): 22.5 µM (inactive)
GI50 (COLO 205): 42.5 µM (inactive)
GI50 (DU-145): 50.2 µM (inactive)
GI50 (EKVX): 25.4 µM (inactive)
GI50 (HCC 2998): 62.5 µM (inactive)
GI50 (HCT-116): 24.1 µM (inactive)
GI50 (HCT-15): 21.7 µM
GI50 (HL-60): 26.7 µM (inactive)
GI50 (HT-29): 27.4 µM (inactive)
GI50 (Hs-578T): 27.9 µM (inactive)
GI50 (IGROV-1): 55.2 µM (inactive)
GI50 (K562): 31.8 µM (inactive)
GI50 (KM12): 33.7 µM (inactive)
GI50 (LOX IMVI): 31.6 µM (inactive)
GI50 (M14): 67.9 µM (inactive)
GI50 (MCF7): 0.776 µM (active)
GI50 (MDA-MB-231): 61.7 µM (inactive)
GI50 (MDA-MB-435): 36.1 µM (inactive)
GI50 (MDA-N): 43.8 µM (inactive)
GI50 (MOLT-4): 24.9 µM (inactive)
GI50 (Malme-3M): 46.6 µM (inactive)
GI50 (NCI-H226): 48.9 µM (inactive)
GI50 (NCI-H23): 32.4 µM (inactive)
GI50 (NCI-H460): 29 µM (inactive)
GI50 (NCI-H522): 12.6 µM (inactive)
GI50 (NCI/ADR-RES): 30.1 µM (inactive)
GI50 (OVCAR-3): 40.8 µM (inactive)
GI50 (OVCAR-5): 42.7 µM (inactive)
GI50 (OVCAR-8): 27.4 µM (inactive)
GI50 (PC-3): 50.9 µM (inactive)
GI50 (RPMI-8226): 37.5 µM (inactive)
GI50 (RXF 393): 23.7 µM (inactive)
GI50 (SF-268): 50.8 µM (inactive)
GI50 (SF-295): 31.8 µM (inactive)
GI50 (SF-539): 80.4 µM (inactive)
GI50 (SK-MEL-28): 74.5 µM (inactive)
GI50 (SK-MEL-2): 50.1 µM (inactive)
GI50 (SK-MEL-5): 27.7 µM (inactive)
GI50 (SK-OV-3): 28.4 µM (inactive)
GI50 (SN12C): 35 µM (inactive)
GI50 (SNB-19): 36.2 µM (inactive)
GI50 (SNB-75): 25.1 µM (inactive)
GI50 (SR): 29.2 µM (inactive)
GI50 (SW-620): 24.1 µM (inactive)
GI50 (TK-10): 41.8 µM (inactive)
GI50 (U-251): 28 µM (inactive)
GI50 (UACC-257): 37.9 µM (inactive)
GI50 (UACC-62): 33.6 µM (inactive)
GI50 (UO-31): 27 µM (inactive)

O=C1C=CC=C/C1=C1\N=C(c2ccccc2OCC(=O)c2ccccc2)SS1
GI50 (786-0): > 100 µM (inactive)
GI50 (A498): > 100 µM (inactive)
GI50 (A549): > 100 µM (inactive)
GI50 (ACHN): > 100 µM (inactive)
GI50 (BT-549): 46.1 µM (inactive)
GI50 (CAKI-1): > 100 µM (inactive)
GI50 (CCRF-CEM): > 100 µM (inactive)
GI50 (EKVX): > 100 µM (inactive)
GI50 (HCC 2998): > 100 µM (inactive)
GI50 (HCT-116): > 100 µM (inactive)
GI50 (HCT-15): > 100 µM
GI50 (HL-60): > 100 µM (inactive)
GI50 (HOP-62): 39.4 µM (inactive)
GI50 (HOP-92): > 100 µM (inactive)
GI50 (HT-29): > 100 µM (inactive)
GI50 (Hs-578T): 26.9 µM (inactive)
GI50 (IGROV-1): > 100 µM (inactive)
GI50 (K562): > 100 µM (inactive)
GI50 (KM12): > 100 µM (inactive)
GI50 (LOX IMVI): > 100 µM (inactive)
GI50 (M14): > 100 µM (inactive)
GI50 (MCF7): > 100 µM (inactive)
GI50 (MDA-MB-231): > 100 µM (inactive)
GI50 (MDA-MB-435): > 100 µM (inactive)
GI50 (MDA-N): > 100 µM (inactive)
GI50 (MOLT-4): 22.6 µM (inactive)
GI50 (Malme-3M): > 100 µM (inactive)
GI50 (NCI-H226): > 100 µM (inactive)
GI50 (NCI-H23): > 100 µM (inactive)
GI50 (NCI-H460): > 100 µM (inactive)
GI50 (NCI/ADR-RES): > 100 µM (inactive)
GI50 (OVCAR-3): > 100 µM (inactive)
GI50 (OVCAR-4): > 100 µM (inactive)
GI50 (OVCAR-5): > 100 µM (inactive)
GI50 (OVCAR-8): 73.5 µM (inactive)
GI50 (RPMI-8226): > 100 µM (inactive)
GI50 (RXF 393): > 100 µM (inactive)
GI50 (SF-268): 58.1 µM (inactive)
GI50 (SF-295): 74.5 µM (inactive)
GI50 (SF-539): 86.7 µM (inactive)
GI50 (SK-MEL-28): > 100 µM (inactive)
GI50 (SK-MEL-2): > 100 µM (inactive)
GI50 (SK-OV-3): > 100 µM (inactive)
GI50 (SN12C): > 100 µM (inactive)
GI50 (SNB-19): > 100 µM (inactive)
GI50 (SNB-75): 19.6 µM (inactive)
GI50 (SW-620): > 100 µM (inactive)
GI50 (TK-10): > 100 µM (inactive)
GI50 (U-251): 44.8 µM (inactive)
GI50 (UACC-257): > 100 µM (inactive)
GI50 (UACC-62): > 100 µM (inactive)
GI50 (UO-31): > 100 µM (inactive)

CC(=O)O[C@H]1C(=O)[C@@]2(C)[C@H]([C@H](OC(=O)c3ccccc3)[C@]3(O)C[C@H](OC(=O)[C@H](O)[C@@H](NC(=O)C(C)(C)C)c4ccccc4)C(C)=C1C3(C)C)[C@]1(OC(C)=O)CO[C@@H]1C[C@@H]2O
GI50 (786-0): 0.324 µM (active)
GI50 (A549): 0.0809 µM (active)
GI50 (ACHN): 3.32 µM (inactive)
GI50 (BT-549): 0.342 µM (active)
GI50 (CAKI-1): 1.56 µM (inactive)
GI50 (CCRF-CEM): 0.0397 µM (active)
GI50 (COLO 205): 0.0444 µM (active)
GI50 (DU-145): 0.106 µM (active)
GI50 (EKVX): 1.87 µM (inactive)
GI50 (HCC 2998): 0.0702 µM (active)
GI50 (HCT-116): 0.0322 µM (active)
GI50 (HCT-15): 1.41 µM
GI50 (HL-60): 0.018 µM (active)
GI50 (HOP-62): 0.215 µM (active)
GI50 (HOP-92): 0.535 µM (active)
GI50 (HT-29): 0.0414 µM (active)
GI50 (Hs-578T): 0.0485 µM (active)
GI50 (IGROV-1): 0.0476 µM (active)
GI50 (K562): 0.0516 µM (active)
GI50 (KM12): 0.0221 µM (active)
GI50 (LOX IMVI): 0.0542 µM (active)
GI50 (M14): 0.0982 µM (active)
GI50 (MCF7): 0.031 µM (active)
GI50 (MDA-MB-231): 5.93 µM (inactive)
GI50 (MDA-MB-435): 0.0158 µM (active)
GI50 (MDA-N): 0.022 µM (active)
GI50 (MOLT-4): 0.0454 µM (active)
GI50 (Malme-3M): 0.165 µM (active)
GI50 (NCI-H226): 0.428 µM (active)
GI50 (NCI-H23): 0.075 µM (active)
GI50 (NCI-H460): 0.0955 µM (active)
GI50 (NCI-H522): 0.0306 µM (active)
GI50 (NCI/ADR-RES): > 10 µM (inactive)
GI50 (OVCAR-4): > 10 µM (inactive)
GI50 (OVCAR-5): 0.508 µM (active)
GI50 (OVCAR-8): 0.0668 µM (active)
GI50 (PC-3): 0.0565 µM (active)
GI50 (RPMI-8226): 0.0305 µM (active)
GI50 (RXF 393): 0.188 µM (active)
GI50 (SF-268): 0.168 µM (active)
GI50 (SF-295): 0.29 µM (active)
GI50 (SF-539): 0.0585 µM (active)
GI50 (SK-MEL-28): 0.105 µM (active)
GI50 (SK-MEL-2): 0.0736 µM (active)
GI50 (SK-MEL-5): 0.0435 µM (active)
GI50 (SK-OV-3): 0.0177 µM (active)
GI50 (SN12C): 0.0807 µM (active)
GI50 (SNB-19): 2.35 µM (inactive)
GI50 (SNB-75): 0.0555 µM (active)
GI50 (SR): 0.0405 µM (active)
GI50 (SW-620): 0.0459 µM (active)
GI50 (TK-10): 0.38 µM (active)
GI50 (U-251): 0.137 µM (active)
GI50 (UACC-257): 0.127 µM (active)
GI50 (UACC-62): 0.0485 µM (active)
GI50 (UO-31): 0.395 µM (active)
